Test results from patent US20240150423A1, “GLP-1 ANALOGUE-MODIFIED DIMERS WITH DIFFERENT CONFIGURATIONS, PREPARATION METHOD THEREOF, AND APPLICATION THEREOF IN TREATMENT OF TYPE II DIABETES” (Nanjing Finepeptide Biopharmaceutical Co.,Ltd, priority 2019, published 2024).

System: Normal Kunming (KM) mice
Test: multiple OGTT (mOGTT): hypoglycemic duration after a single administration
Format: in vivo
Conditions: monomeric peptides, single injection at the same dose (1.126 nmol), subcutaneous
Outline: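 Single administration in normal Kunming mice, followed by oral glucose loading with tail-vein glucose sampled at 0–120 min (0, 10, 20, 40, 60, 120 min). Effective duration ended once mean glucose exceeded the NaCl control group on two occasions.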

| Substance | Hypoglycemic [days] |
| --- | --- |
| His-Ala-Glu-Gly-Thr-Phe-ThrCys-Asp-Val-Ser-Ser-Tyr-Leu-Glu-Gly-Gln-Ala-Ala-Lys[N-ϵ-(N-α-oleoyl-L-γ-glutamyl)]-Glu-Phe-Ile-Ala-Trp-Leu-Val-Arg-Gly-Arg-Gly-OH (HAEGTFTCDVSSYLEGQAAXEFIAWLVRGRG; oleoyl-gamma-Glu on Lys; C-terminal acid; Sequence is synthesized; (20)..(20) Xaa is 26Lys[N-e-(N-a-oleoyl-L-g-glutamyl)]; (31)..(31) C-terminal) [G8 series 58] | 1 |
| His-Ala-Glu-Gly-Thr-Phe-Thr-Cys-Asp-Val-Ser-Ser-Tyr-Leu-Glu-Gly-Gln-Ala-Ala-Lys[N-α-(N-α-oleoyl-L-γ-glutamyl)]-Glu-Phe-Ile-Ala-Trp-Leu-Val-Arg-Gly-Arg-Gly-NH2 (HAEGTFTCDVSSYLEGQAAXEFIAWLVRGRG; oleoyl-gamma-Glu on Lys; C-terminal amide; Sequence is synthesized; (20)..(20) Xaa is 26Lys[N-e-(N-a-oleoyl-L-g-glutamyl)]; (31)..(31) N-terminal) [G8 series 59] | 3 |
| His-Ala-Glu-Gly-Thr-Phe-Thr-Ser-Asp-Val-Ser-Cys-Tyr-Leu-Glu-Gly-Gln-Ala-Ala-Lys[N-ϵ-(N-α-Palmitoyl)]-Glu-Phe-Ile-Ala-Trp-Leu-Val-Arg-Gly-Arg-Gly-NH2 (HAEGTFTSDVSCYLEGQAAXEFIAWLVRGRG; palmitoyl on Lys side chain; C-terminal amide; Sequence is synthesized; (20)..(20) Xaa is 26Lys[N-e-(N-a-palmitoyl-L-g-glutamyl)]; (31)..(31) N-terminal) [G4 series 35] | 6 |
| His-Ala-Glu-Gly-Thr-Phe-Thr-Ser-Asp-Val-Ser-Cys-Tyr-Leu-Glu-Gly-Gln-Ala-Ala-Lys[N-ϵ-(N-α-Palmitoyl-L-γ-glutamyl)]-Glu-Phe-Ile-Ala-Trp-Leu-Val-Arg-Gly-Arg-Gly-NH2 (HAEGTFTSDVSCYLEGQAAXEFIAWLVRGRG; palmitoyl-γ-glutamyl on Lys; C-terminal amide; Sequence is synthesized; (20)..(20) Xaa is 26Lys[N-e-(N-a-palmitoyl-L-g-glutamyl)]; (31)..(31) N-terminal) [G3 series 22] | 6 |
| His-aAib-Glu-Gly-Thr-Phe-Thr-Ser-Asp-Val-Cys-Ser-Tyr-Leu-Glu-Gly-Gln-Ala-Ala-Lys[N-ϵ-(N-α-Palmitoyl-γ-glutamyl)]-Glu-Phe-Ile-Ala-Trp-Leu-Val-Arg-Gly-Arg-Gly-OH (HXEGTFTSDVCSYLEGQAAXEFIAWLVRGRG; αAib; palmitoyl-γ-glutamyl on Lys; C-terminal acid; Sequence is synthesized; (2)..(2) Xaa is aAib; (20)..(20) Xaa is 26Lys[N-e-(N-a-Palmitoyl-g-glutamyl)]; (31)..(31) C-terminal) [G2 series 11] | 4 |
| His-βAib-Glu-Gly-Thr-Phe-Thr-Ser-Asp-Val-Cys-Ser-Tyr-Leu-Glu-Gly-Gln-Ala-Ala-Lys[N-ϵ-(N-α-oleoyl-L-γ-glutamyl)]-Glu-Phe-Ile-Ala-Trp-Leu-Val-Arg-Gly-Arg-Gly-NH2 (HXEGTFTSDVCSYLEGQAAXEFIAWLVRGRG; βAib; oleoyl-γ-glutamyl on Lys; C-terminal amide; Sequence is synthesized; (2)..(2) Xaa is bAib; (20)..(20) Xaa is 26Lys[N-e-(N-a-oleoyl-L-g-glutamyl)]; (31)..(31) N-terminal) [G2 series 15] | 5 |
| His-aAib-Glu-Gly-Thr-Phe-Thr-Ser-Asp-Val-Ser-Cys-Tyr-Leu-Glu-Gly-Gln-Ala-Ala-Lys[N-ϵ-(N-α-oleoyl-L-γ-glutamyl)]-Glu-Phe-Ile-Ala-Trp-Leu-Val-Arg-Gly-Arg-Gly-OH (HXEGTFTSDVSCYLEGQAAXEFIAWLVRGRG; Aib; oleoyl-gamma-Glu on Lys; C-terminal acid; Sequence is synthesized; (2)..(2) Xaa is aAib; (20)..(20) Xaa is LyO; (31)..(31) C-terminal) [G6 series 46] | 5 |
| His-βAla-Glu-Gly-Thr-Phe-Thr-Ser-Asp-Val-Cys-Ser-Tyr-Leu-Glu-Gly-Gln-Ala-Ala-Lys[N-ϵ-(N-α-oleoyl)]-Glu-Phe-Ile-Ala-Trp-Leu-Val-Arg-Gly-Arg-Gly-NH2 (HXEGTFTSDVCSYLEGQAAXEFIAWLVRGRG; β-amino acid; oleoyl on Lys; C-terminal amide; Sequence is synthesized; (2)..(2) Xaa is bAla; (20)..(20) Xaa is 26Lys[N-e-(N-a-oleoyl-L-g-glutamyl)]; (31)..(31) N-terminal) [G4 series 31] | 5 |

Same assay, conditions: single injection at the same dose (1.126 nmol), subcutaneous

| Substance | Hypoglycemic duration [days] |
| --- | --- |
| 2G3 series 22: disulfide-linked homodimer of monomer SEQ ID NO: 22 (HAEGTFTSDVSCYLEGQAAXEFIAWLVRGRG; not fully specified; disulfide-linked homodimer; Sequence is synthesized; (20)..(20) Xaa is 26Lys[N-e-(N-a-palmitoyl-L-g-glutamyl)]; (31)..(31) N-terminal) | 16 |
| 2G2 series 9: disulfide-linked homodimer of monomer SEQ ID NO: 9 (HAEGTFTSDVCSYLEGQAAXEFIAWLVRGRG; disulfide-linked homodimer; Sequence is synthesized; (20)..(20) Xaa is 26Lys[N-e-(N-a-oleoyl-L-g-glutamyl)]; (31)..(1) C-terminal) | 5 |
| 2G3 series 23: disulfide-linked homodimer of monomer SEQ ID NO: 23 (HAEGTFTSDVSCYLEGQAAXEFIAWLVRGRG; disulfide-linked homodimer; Sequence is synthesized; (20)..(20) Xaa is 26Lys[N-e-(N-a-oleoyl-L-g-glutamyl)]; (31)..(31) N-terminal) | 17 |
| 2G5 series 44: disulfide-linked homodimer of monomer SEQ ID NO: 44 (HXEGTFTSDVSCYLEGQAAXEFIAWLVXGRG; disulfide-linked homodimer; Sequence is synthesized; (2)..(2) Xaa is bAla; (20)..(20) Xaa is 26Lys[N-e-(N-a-palmitoyl-L-g-glutamyl)]; (28)..(28) Xaa is 26Lys[N-e-(N-a-palmitoyl-L-g-glutamyl)]; (31)..(31) N-terminal) | 6 |
| 2G5 series 43: disulfide-linked homodimer of monomer SEQ ID NO: 43 (HXEGTFTSDVSCYLEGQAAXEFIAWLVXGRG; disulfide-linked homodimer; Sequence is synthesized; (2)..(2) Xaa is bAib; (20)..(20) Xaa is 26Lys[N-e-(N-a-palmitoyl-L-g-glutamyl)]; (28)..(28) Xaa is 26Lys[N-e-(N-a-palmitoyl-L-g-glutamyl)]; (31)..(31) N-terminal) | 7 |
| 2G8 series 68: disulfide-linked homodimer of monomer SEQ ID NO: 68 (HXEGTFTCDVSSYLEGQAAXEFIAWLVRGRG; disulfide-linked homodimer; Sequence is synthesized; (2)..(2) Xaa is bAla; (20)..(20) Xaa is 26Lys[N-e-(N-a-oleoyl-L-g-glutamyl)]; (31)..(31) N-terminal) | 7 |
